Source: patent publication US20220340629A1, “Myosin Derived Peptides and Related Compounds with Anticoagulant Activities” (THE SCRIPPS RESEARCH INSTITUTE, priority 0001, published 2022)
Residues, ends and D or L forms follow the SMILES beside them.

Target: skeletal muscle myosin-supported prothrombin activation by factors Xa and Va (Homo sapiens, UniProt P00742)
Experiment: Assay 1A: prothrombin activation by factor Xa/factor Va/myosin in purified system
Type: biochemical, human factors Xa and Va; rabbit skeletal muscle myosin
Details: purified system; skeletal muscle myosin, factor Va 5 nM, factor Xa 0.2 nM, prothrombin 0.75 μM, 10 min; read-out: 1A (+myosin)

Sequence of skeletal muscle myosin-supported prothrombin activation by factors Xa and Va (P00742 41-179): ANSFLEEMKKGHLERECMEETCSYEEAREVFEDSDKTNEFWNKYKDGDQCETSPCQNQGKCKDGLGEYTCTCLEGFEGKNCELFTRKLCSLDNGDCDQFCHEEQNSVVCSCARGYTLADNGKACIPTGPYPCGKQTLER
Sequence of skeletal muscle myosin-supported prothrombin activation by factors Xa and Va (P00742 235-488): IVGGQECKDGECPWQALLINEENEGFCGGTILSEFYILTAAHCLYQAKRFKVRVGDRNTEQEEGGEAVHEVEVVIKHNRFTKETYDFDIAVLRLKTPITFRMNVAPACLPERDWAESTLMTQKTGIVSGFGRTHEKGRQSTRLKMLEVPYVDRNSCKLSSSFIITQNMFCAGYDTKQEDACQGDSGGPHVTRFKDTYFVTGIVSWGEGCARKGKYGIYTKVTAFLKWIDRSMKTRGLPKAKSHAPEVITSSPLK
Sequence of skeletal muscle myosin-supported prothrombin activation by factors Xa and Va (P12259 29-737 partner): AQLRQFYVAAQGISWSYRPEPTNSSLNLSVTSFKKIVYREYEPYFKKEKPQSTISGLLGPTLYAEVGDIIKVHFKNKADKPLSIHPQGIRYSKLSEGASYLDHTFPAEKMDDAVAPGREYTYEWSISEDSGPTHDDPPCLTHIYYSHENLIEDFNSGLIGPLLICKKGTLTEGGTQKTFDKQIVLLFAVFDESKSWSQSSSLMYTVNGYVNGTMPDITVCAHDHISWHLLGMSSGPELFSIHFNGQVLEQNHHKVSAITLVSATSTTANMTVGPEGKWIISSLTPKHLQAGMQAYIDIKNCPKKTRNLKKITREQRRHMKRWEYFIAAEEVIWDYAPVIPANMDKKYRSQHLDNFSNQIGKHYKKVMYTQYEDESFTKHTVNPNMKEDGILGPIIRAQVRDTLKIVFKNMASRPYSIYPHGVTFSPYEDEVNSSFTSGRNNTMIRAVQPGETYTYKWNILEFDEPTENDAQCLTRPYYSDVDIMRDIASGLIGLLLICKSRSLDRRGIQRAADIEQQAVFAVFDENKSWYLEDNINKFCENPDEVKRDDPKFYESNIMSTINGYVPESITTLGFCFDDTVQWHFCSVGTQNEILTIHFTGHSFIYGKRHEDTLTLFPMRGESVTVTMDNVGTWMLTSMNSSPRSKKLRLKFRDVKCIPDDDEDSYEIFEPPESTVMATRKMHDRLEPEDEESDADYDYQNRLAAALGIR
Sequence of skeletal muscle myosin-supported prothrombin activation by factors Xa and Va (P12259 1574-2224 partner): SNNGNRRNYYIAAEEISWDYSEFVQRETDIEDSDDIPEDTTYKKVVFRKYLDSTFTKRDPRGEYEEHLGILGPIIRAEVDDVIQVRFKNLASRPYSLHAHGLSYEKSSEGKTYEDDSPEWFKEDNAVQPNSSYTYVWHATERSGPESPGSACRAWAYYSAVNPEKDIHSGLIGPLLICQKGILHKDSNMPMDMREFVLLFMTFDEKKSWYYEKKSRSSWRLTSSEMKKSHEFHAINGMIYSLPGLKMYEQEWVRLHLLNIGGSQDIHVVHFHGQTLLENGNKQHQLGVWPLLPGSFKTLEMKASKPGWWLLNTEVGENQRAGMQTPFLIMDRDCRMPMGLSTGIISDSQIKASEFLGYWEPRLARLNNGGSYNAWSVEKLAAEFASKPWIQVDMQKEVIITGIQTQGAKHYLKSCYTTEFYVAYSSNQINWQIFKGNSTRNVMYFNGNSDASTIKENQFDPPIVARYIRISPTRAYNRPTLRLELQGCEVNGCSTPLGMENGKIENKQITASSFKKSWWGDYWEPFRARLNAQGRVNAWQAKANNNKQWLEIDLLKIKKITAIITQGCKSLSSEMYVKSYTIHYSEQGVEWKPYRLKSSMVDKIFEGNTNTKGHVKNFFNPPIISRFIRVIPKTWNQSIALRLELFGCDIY

Row | SMILES | IC50
1 | CC[C@H](C)[C@H](NC(=O)[C@H](CS)NC(=O)[C@H](Cc1ccccc1)NC(=O)[C@H](C)NC(=O)[C@H](C)N)C(=O)N[C@@H](CCC(N)=O)C(=O)N[C@@H](Cc1ccc(O)cc1)C(=O)N[C@@H](CC(N)=O)C(=O)N[C@H](C(=O)N[C@@H](CCCNC(=N)N)C(=O)N[C@@H](CO)C(=O)N[C@@H](Cc1ccccc1)C(=O)N[C@@H](CCSC)C(=O)N[C@@H](CC(N)=O)C(=O)N[C@H](C(=O)N[C@@H](CCCCN)C(=O)N[C@@H](Cc1c[nH]cn1)C(=O)N[C@@H](Cc1c[nH]c2ccccc12)C(=O)N1CCC[C@H]1C(=O)N[C@@H](Cc1c[nH]c2ccccc12)C(=O)N[C@@H](CCSC)C(=O)N[C@@H](CCCCN)C(N)=O)C(C)C)[C@@H](C)CC [HC117] (H-AAFCIQYNIRSFMNVKHWPWMK-NH2; N-terminus assumed) | 780 nM
2 | CC[C@H](C)[C@H](NC(=O)[C@H](C)N)C(=O)N[C@@H](C)C(=O)N[C@@H](CS)C(=O)N[C@H](C(=O)N[C@@H](CCC(N)=O)C(=O)N[C@@H](Cc1ccc(O)cc1)C(=O)N[C@@H](CC(N)=O)C(=O)N[C@H](C(=O)N[C@@H](CCCNC(=N)N)C(=O)N[C@@H](CO)C(=O)N[C@@H](Cc1ccccc1)C(=O)N[C@@H](CCSC)C(=O)N[C@@H](CC(N)=O)C(=O)N[C@H](C(=O)N[C@@H](CCCCN)C(=O)N[C@@H](Cc1c[nH]cn1)C(=O)N[C@@H](Cc1c[nH]c2ccccc12)C(=O)N1CCC[C@H]1C(=O)N[C@@H](Cc1c[nH]c2ccccc12)C(=O)N[C@@H](CCSC)C(=O)N[C@@H](CCCCN)C(N)=O)C(C)C)[C@@H](C)CC)[C@@H](C)CC [HC118] (H-AIACIQYNIRSFMNVKHWPWMK-NH2; N-terminus assumed) | 1800 nM
3 | CC[C@H](C)[C@H](NC(=O)[C@H](C)N)C(=O)N[C@@H](Cc1ccccc1)C(=O)N[C@@H](C)C(=O)N[C@H](C(=O)N[C@@H](CCC(N)=O)C(=O)N[C@@H](Cc1ccc(O)cc1)C(=O)N[C@@H](CC(N)=O)C(=O)N[C@H](C(=O)N[C@@H](CCCNC(=N)N)C(=O)N[C@@H](CO)C(=O)N[C@@H](Cc1ccccc1)C(=O)N[C@@H](CCSC)C(=O)N[C@@H](CC(N)=O)C(=O)N[C@H](C(=O)N[C@@H](CCCCN)C(=O)N[C@@H](Cc1c[nH]cn1)C(=O)N[C@@H](Cc1c[nH]c2ccccc12)C(=O)N1CCC[C@H]1C(=O)N[C@@H](Cc1c[nH]c2ccccc12)C(=O)N[C@@H](CCSC)C(=O)N[C@@H](CCCCN)C(N)=O)C(C)C)[C@@H](C)CC)[C@@H](C)CC [HC119] (H-AIFAIQYNIRSFMNVKHWPWMK-NH2; N-terminus assumed) | 5200 nM
4 | CC[C@H](C)[C@H](NC(=O)[C@H](C)N)C(=O)N[C@@H](Cc1ccccc1)C(=O)N[C@@H](CS)C(=O)N[C@@H](C)C(=O)N[C@@H](CCC(N)=O)C(=O)N[C@@H](Cc1ccc(O)cc1)C(=O)N[C@@H](CC(N)=O)C(=O)N[C@H](C(=O)N[C@@H](CCCNC(=N)N)C(=O)N[C@@H](CO)C(=O)N[C@@H](Cc1ccccc1)C(=O)N[C@@H](CCSC)C(=O)N[C@@H](CC(N)=O)C(=O)N[C@H](C(=O)N[C@@H](CCCCN)C(=O)N[C@@H](Cc1c[nH]cn1)C(=O)N[C@@H](Cc1c[nH]c2ccccc12)C(=O)N1CCC[C@H]1C(=O)N[C@@H](Cc1c[nH]c2ccccc12)C(=O)N[C@@H](CCSC)C(=O)N[C@@H](CCCCN)C(N)=O)C(C)C)[C@@H](C)CC [HC120] (H-AIFCAQYNIRSFMNVKHWPWMK-NH2; N-terminus assumed) | 5200 nM
5 | CC[C@H](C)[C@H](NC(=O)[C@H](C)N)C(=O)N[C@@H](Cc1ccccc1)C(=O)N[C@@H](CS)C(=O)N[C@H](C(=O)N[C@@H](C)C(=O)N[C@@H](Cc1ccc(O)cc1)C(=O)N[C@@H](CC(N)=O)C(=O)N[C@H](C(=O)N[C@@H](CCCNC(=N)N)C(=O)N[C@@H](CO)C(=O)N[C@@H](Cc1ccccc1)C(=O)N[C@@H](CCSC)C(=O)N[C@@H](CC(N)=O)C(=O)N[C@H](C(=O)N[C@@H](CCCCN)C(=O)N[C@@H](Cc1c[nH]cn1)C(=O)N[C@@H](Cc1c[nH]c2ccccc12)C(=O)N1CCC[C@H]1C(=O)N[C@@H](Cc1c[nH]c2ccccc12)C(=O)N[C@@H](CCSC)C(=O)N[C@@H](CCCCN)C(N)=O)C(C)C)[C@@H](C)CC)[C@@H](C)CC [HC121] (H-AIFCIAYNIRSFMNVKHWPWMK-NH2; N-terminus assumed) | 3200 nM
6 | CC[C@H](C)[C@H](NC(=O)[C@H](C)N)C(=O)N[C@@H](Cc1ccccc1)C(=O)N[C@@H](CS)C(=O)N[C@H](C(=O)N[C@@H](CCC(N)=O)C(=O)N[C@@H](C)C(=O)N[C@@H](CC(N)=O)C(=O)N[C@H](C(=O)N[C@@H](CCCNC(=N)N)C(=O)N[C@@H](CO)C(=O)N[C@@H](Cc1ccccc1)C(=O)N[C@@H](CCSC)C(=O)N[C@@H](CC(N)=O)C(=O)N[C@H](C(=O)N[C@@H](CCCCN)C(=O)N[C@@H](Cc1c[nH]cn1)C(=O)N[C@@H](Cc1c[nH]c2ccccc12)C(=O)N1CCC[C@H]1C(=O)N[C@@H](Cc1c[nH]c2ccccc12)C(=O)N[C@@H](CCSC)C(=O)N[C@@H](CCCCN)C(N)=O)C(C)C)[C@@H](C)CC)[C@@H](C)CC [HC122] (H-AIFCIQANIRSFMNVKHWPWMK-NH2; N-terminus assumed) | 1100 nM
7 | CC[C@H](C)[C@H](NC(=O)[C@H](C)N)C(=O)N[C@@H](Cc1ccccc1)C(=O)N[C@@H](CS)C(=O)N[C@H](C(=O)N[C@@H](CCC(N)=O)C(=O)N[C@@H](Cc1ccc(O)cc1)C(=O)N[C@@H](C)C(=O)N[C@H](C(=O)N[C@@H](CCCNC(=N)N)C(=O)N[C@@H](CO)C(=O)N[C@@H](Cc1ccccc1)C(=O)N[C@@H](CCSC)C(=O)N[C@@H](CC(N)=O)C(=O)N[C@H](C(=O)N[C@@H](CCCCN)C(=O)N[C@@H](Cc1c[nH]cn1)C(=O)N[C@@H](Cc1c[nH]c2ccccc12)C(=O)N1CCC[C@H]1C(=O)N[C@@H](Cc1c[nH]c2ccccc12)C(=O)N[C@@H](CCSC)C(=O)N[C@@H](CCCCN)C(N)=O)C(C)C)[C@@H](C)CC)[C@@H](C)CC [HC123] (H-AIFCIQYAIRSFMNVKHWPWMK-NH2; N-terminus assumed) | 600 nM
8 | CC[C@H](C)[C@H](NC(=O)[C@H](C)N)C(=O)N[C@@H](Cc1ccccc1)C(=O)N[C@@H](CS)C(=O)N[C@H](C(=O)N[C@@H](CCC(N)=O)C(=O)N[C@@H](Cc1ccc(O)cc1)C(=O)N[C@@H](CC(N)=O)C(=O)N[C@@H](C)C(=O)N[C@@H](CCCNC(=N)N)C(=O)N[C@@H](CO)C(=O)N[C@@H](Cc1ccccc1)C(=O)N[C@@H](CCSC)C(=O)N[C@@H](CC(N)=O)C(=O)N[C@H](C(=O)N[C@@H](CCCCN)C(=O)N[C@@H](Cc1c[nH]cn1)C(=O)N[C@@H](Cc1c[nH]c2ccccc12)C(=O)N1CCC[C@H]1C(=O)N[C@@H](Cc1c[nH]c2ccccc12)C(=O)N[C@@H](CCSC)C(=O)N[C@@H](CCCCN)C(N)=O)C(C)C)[C@@H](C)CC [HC124] (H-AIFCIQYNARSFMNVKHWPWMK-NH2; N-terminus assumed) | 700 nM
9 | CC[C@H](C)[C@H](NC(=O)[C@H](C)N)C(=O)N[C@@H](Cc1ccccc1)C(=O)N[C@@H](CS)C(=O)N[C@H](C(=O)N[C@@H](CCC(N)=O)C(=O)N[C@@H](Cc1ccc(O)cc1)C(=O)N[C@@H](CC(N)=O)C(=O)N[C@H](C(=O)N[C@@H](C)C(=O)N[C@@H](CO)C(=O)N[C@@H](Cc1ccccc1)C(=O)N[C@@H](CCSC)C(=O)N[C@@H](CC(N)=O)C(=O)N[C@H](C(=O)N[C@@H](CCCCN)C(=O)N[C@@H](Cc1c[nH]cn1)C(=O)N[C@@H](Cc1c[nH]c2ccccc12)C(=O)N1CCC[C@H]1C(=O)N[C@@H](Cc1c[nH]c2ccccc12)C(=O)N[C@@H](CCSC)C(=O)N[C@@H](CCCCN)C(N)=O)C(C)C)[C@@H](C)CC)[C@@H](C)CC [HC125] (H-AIFCIQYNIASFMNVKHWPWMK-NH2; N-terminus assumed) | 600 nM
10 | CC[C@H](C)[C@H](NC(=O)[C@H](C)N)C(=O)N[C@@H](Cc1ccccc1)C(=O)N[C@@H](CS)C(=O)N[C@H](C(=O)N[C@@H](CCC(N)=O)C(=O)N[C@@H](Cc1ccc(O)cc1)C(=O)N[C@@H](CC(N)=O)C(=O)N[C@H](C(=O)N[C@@H](CCCNC(=N)N)C(=O)N[C@@H](C)C(=O)N[C@@H](Cc1ccccc1)C(=O)N[C@@H](CCSC)C(=O)N[C@@H](CC(N)=O)C(=O)N[C@H](C(=O)N[C@@H](CCCCN)C(=O)N[C@@H](Cc1c[nH]cn1)C(=O)N[C@@H](Cc1c[nH]c2ccccc12)C(=O)N1CCC[C@H]1C(=O)N[C@@H](Cc1c[nH]c2ccccc12)C(=O)N[C@@H](CCSC)C(=O)N[C@@H](CCCCN)C(N)=O)C(C)C)[C@@H](C)CC)[C@@H](C)CC [HC126] (H-AIFCIQYNIRAFMNVKHWPWMK-NH2; N-terminus assumed) | 4900 nM
11 | CC[C@H](C)[C@H](NC(=O)[C@H](C)N)C(=O)N[C@@H](Cc1ccccc1)C(=O)N[C@@H](CS)C(=O)N[C@H](C(=O)N[C@@H](CCC(N)=O)C(=O)N[C@@H](Cc1ccc(O)cc1)C(=O)N[C@@H](CC(N)=O)C(=O)N[C@H](C(=O)N[C@@H](CCCNC(=N)N)C(=O)N[C@@H](CO)C(=O)N[C@@H](C)C(=O)N[C@@H](CCSC)C(=O)N[C@@H](CC(N)=O)C(=O)N[C@H](C(=O)N[C@@H](CCCCN)C(=O)N[C@@H](Cc1c[nH]cn1)C(=O)N[C@@H](Cc1c[nH]c2ccccc12)C(=O)N1CCC[C@H]1C(=O)N[C@@H](Cc1c[nH]c2ccccc12)C(=O)N[C@@H](CCSC)C(=O)N[C@@H](CCCCN)C(N)=O)C(C)C)[C@@H](C)CC)[C@@H](C)CC [HC127] (H-AIFCIQYNIRSAMNVKHWPWMK-NH2; N-terminus assumed) | 5900 nM
12 | CC[C@H](C)[C@H](NC(=O)[C@H](C)N)C(=O)N[C@@H](Cc1ccccc1)C(=O)N[C@@H](CS)C(=O)N[C@H](C(=O)N[C@@H](CCC(N)=O)C(=O)N[C@@H](Cc1ccc(O)cc1)C(=O)N[C@@H](CC(N)=O)C(=O)N[C@H](C(=O)N[C@@H](CCCNC(=N)N)C(=O)N[C@@H](CO)C(=O)N[C@@H](Cc1ccccc1)C(=O)N[C@@H](C)C(=O)N[C@@H](CC(N)=O)C(=O)N[C@H](C(=O)N[C@@H](CCCCN)C(=O)N[C@@H](Cc1c[nH]cn1)C(=O)N[C@@H](Cc1c[nH]c2ccccc12)C(=O)N1CCC[C@H]1C(=O)N[C@@H](Cc1c[nH]c2ccccc12)C(=O)N[C@@H](CCSC)C(=O)N[C@@H](CCCCN)C(N)=O)C(C)C)[C@@H](C)CC)[C@@H](C)CC [HC128] (H-AIFCIQYNIRSFANVKHWPWMK-NH2; N-terminus assumed) | 2000 nM
